From patent publication US12258331B2, “Pyrimidine derivative and preparation process and use thereof” (Guangdong Lewwin Pharmaceutical Research Institute Co., Ltd., priority 2018, dated 2025)

Legend:
[1] = Pharmacokinetic properties after intravenous injection and intragastric administration; format: in vivo, mice
Protocol: Shanghai Medicilon Bio-pharmaceutical Co., LTD was commissioned to research pharmacokinetic properties of the novel pyrimidine derivatives (R)-14, (R)-5b, and Tepotinib in mice. The specific processes are: An appropriate amount of the compounds (R)-14, (R)-5b and Tepotinib were accurately weighed and dissolved in a solution containing 2% Solutol and 98% 100 mM sodium acetate to obtain a clear dosing solution at a concentration of 2 mg/mL for intravenous administration. An appropriate amount of the compounds (R)-14, (R)-5b were accurately weighed and dissolved in 5% Solutol and 95% saline to obtain a clear dosing solution at a concentration of 5 mg/mL. An appropriate amount of Tepotinib was accurately weighed and dissolved in 5% Solutol, 5% DMSO and 90% saline, for oral administration and injection. Blood was collected from the test […] via jugular vein puncture, about 0.3 mL for per sample, and using heparin sodium as the anticoagulant. The time points for blood sampling were as below (including intravenous injection and oral administration): before administration, 5 min, 15 min, 30 min, 1 h, 2 h, 4 h, 8 h and 24 h post administration. After collection, blood samples were placed on ice, and plasma was separated by centrifugation within 30 minutes (centrifugation conditions: 8000 rpm, 6 minutes, 2-8° C.). The collected plasma was stored at −80° C. before analysis. Plasma samples were all analyzed qualitatively and quantitatively by LC-MS/MS. The dosage and ways for administration were intravenous injection (IV, 2 mg/kg) and intragastric administration (PO, 5 mg/kg) respectively, with the pharmacokinetic data shown in Table 3.

[2] = Metabolic stability in rat liver microsomes; conditions: 37° C.
Protocol: Firstly, a SD rat (200-300 g) was fasted for 12 hours, and then infused rapidly with normal saline. Liver was taken out from the rat, from which liver microsomes were extracted at 0-4° C., ready for use after calibrating the concentration of liver microsomes. At 37° C., liver microsomes were incubated in combination with a certain concentration of compounds and auxiliary reagents for a period of time. The reaction was then quenched with acetonitrile.

[3] = Sprague-Dawley, mouse, in vivo, iv, 2 mg/kg
[4] = Sprague-Dawley, mouse, in vivo, po, 5 mg/kg

SMILES	AUC0-∞ [1, 3] [ng·h/mL]	CL [1, 3] [mL/min/kg]	T1/2 [1, 3] [h]	AUC0-∞ [1, 4] [ng·h/mL]	Tmax [1, 4] [h]	T1/2 (metabolic half-life in liver microsomes) [2] [h]	AUC0-∞ ([1]; IV 2 mg/kg) [ng·h/mL]	CL ([1]; IV 2 mg/kg) [mL/min/kg]	T1/2 ([1]; IV 2 mg/kg) [h]	Vz ([1]; IV 2 mg/kg) [L/kg]	AUC0-∞ ([1]; PO 5 mg/kg) [ng·h/mL]	Cmax ([1]; PO 5 mg/kg) [ng/mL]	Tmax ([1]; PO 5 mg/kg) [h]	F % (bioavailability) ([1]; PO 5 mg/kg vs IV 2 mg/kg) [%]
[2H]C([2H])([2H])C([2H])(c1cccc(-c2ncc(OCC3CCN(C)CC3)cn2)c1)n1nc(-c2cccc(C#N)c2)ccc1=O (stereo in doubt) [(R)-14]	2441.64	13.652	4.48	6309.37	4	–	–	–	–	–	–	–	–	–
CN1CCC(COc2cnc(-c3cccc(Cn4nc(-c5cccc(C#N)c5)ccc4=O)c3)nc2)CC1 [Tepotinib]	–	–	–	–	–	0.345	562.74	59.2338	1.79	9.17868	981.69	211.23	1	67.77
C[C@H](c1cccc(-c2ncc(OCC3CCN(C)CC3)cn2)c1)n1nc(-c2cccc(C#N)c2)ccc1=O [(R)-5b]	2143.91	15.548	4.23	4580.23	–	–	–	–	–	–	–	–	–	–
